This data set concerns CCRIS mutagenicity, Ames/micronucleus/aberration tests. Description: CCRIS mutagenicity studies.
[1] abbreviates: Test System: AMES SALMONELLA TYPHIMURIUM, Strain/Indicator: TA98, Metabolic Activation: NONE, Method: PREINCUBATION
[2] abbreviates: Test System: AMES SALMONELLA TYPHIMURIUM, Strain/Indicator: TA100, Metabolic Activation: NONE, Method: PREINCUBATION
Where [3] appears, read: Test System: AMES SALMONELLA TYPHIMURIUM, Strain/Indicator: TA1535, Metabolic Activation: NONE, Method: PREINCUBATION
Where [4] appears, read: Test System: AMES SALMONELLA TYPHIMURIUM, Strain/Indicator: TA1537, Metabolic Activation: NONE, Method: PREINCUBATION
Where [5] appears, read: Test System: AMES SALMONELLA TYPHIMURIUM, Strain/Indicator: TA98, Metabolic Activation: NONE, Method: STANDARD PLATE.
The mark [6] stands for this setting: Test System: AMES SALMONELLA TYPHIMURIUM, Strain/Indicator: TA98, Metabolic Activation: RAT, LIVER, S-9, AROCLOR 1254, Method: STANDARD PLATE.
Setting [7] is: Test System: AMES SALMONELLA TYPHIMURIUM, Strain/Indicator: TA100, Metabolic Activation: NONE, Method: STANDARD PLATE.
Where [8] appears, read: Test System: AMES SALMONELLA TYPHIMURIUM, Strain/Indicator: TA100, Metabolic Activation: RAT, LIVER, S-9, AROCLOR 1254, Method: STANDARD PLATE.
[9] abbreviates: Test System: AMES SALMONELLA TYPHIMURIUM, Strain/Indicator: TA1535, Metabolic Activation: NONE, Method: STANDARD PLATE.
[10] abbreviates: Test System: AMES SALMONELLA TYPHIMURIUM, Strain/Indicator: TA1535, Metabolic Activation: RAT, LIVER, S-9, AROCLOR 1254, Method: STANDARD PLATE.
Setting [11] is: Test System: AMES SALMONELLA TYPHIMURIUM, Strain/Indicator: TA1537, Metabolic Activation: NONE, Method: STANDARD PLATE.
Setting [12] is: Test System: AMES SALMONELLA TYPHIMURIUM, Strain/Indicator: TA1537, Metabolic Activation: RAT, LIVER, S-9, AROCLOR 1254, Method: STANDARD PLATE.
The mark [13] stands for this setting: Test System: AMES SALMONELLA TYPHIMURIUM, Strain/Indicator: TA1538, Metabolic Activation: NONE, Method: STANDARD PLATE.
The mark [14] stands for this setting: Test System: AMES SALMONELLA TYPHIMURIUM, Strain/Indicator: TA1538, Metabolic Activation: RAT, LIVER, S-9, AROCLOR 1254, Method: STANDARD PLATE.

Calls of active or inactive are those of the source. The rule behind the calls is not given here.

For the molecule `Nc1ccc2c(c1)C(=O)/C(=N/Nc1ccc(-c3ccc(N/N=C4/C(=O)c5c(N)cc(S(=O)(=O)O)cc5C=C4S(=O)(=O)O)cc3)cc1)C(S(=O)(=O)O)=C2`, the mutagenic call reads like this: (Test System: AMES SALMONELLA TYPHIMURIUM, Strain/Indicator: TA98, Metabolic Activation: HAMSTER, LIVER, S-9, AROCLOR 1254 (10%), Method: PREINCUBATION) “active; positive”; under setting [1], “active; positive”; (Test System: AMES SALMONELLA TYPHIMURIUM, Strain/Indicator: TA98, Metabolic Activation: RAT, LIVER, S-9, AROCLOR 1254 (10%), Method: PREINCUBATION) “inactive; negative”; (Test System: AMES SALMONELLA TYPHIMURIUM, Strain/Indicator: TA100, Metabolic Activation: HAMSTER, LIVER, S-9, AROCLOR 1254 (10%), Method: PREINCUBATION) “inactive; negative”; under setting [2], “inactive; negative”; (Test System: AMES SALMONELLA TYPHIMURIUM, Strain/Indicator: TA100, Metabolic Activation: RAT, LIVER, S-9, AROCLOR 1254 (10%), Method: PREINCUBATION) “inactive; negative”. In addition, the mutagenic call by setting is: (Test System: AMES SALMONELLA TYPHIMURIUM, Strain/Indicator: TA1535, Metabolic Activation: HAMSTER, LIVER, S-9, AROCLOR 1254 (10%), Method: PREINCUBATION) “inactive; negative”; under setting [3], “inactive; negative”; (Test System: AMES SALMONELLA TYPHIMURIUM, Strain/Indicator: TA1535, Metabolic Activation: RAT, LIVER, S-9, AROCLOR 1254 (10%), Method: PREINCUBATION) “inactive; negative”; (Test System: AMES SALMONELLA TYPHIMURIUM, Strain/Indicator: TA1537, Metabolic Activation: HAMSTER, LIVER, S-9, AROCLOR 1254 (10%), Method: PREINCUBATION) “inactive; negative”; under setting [4], “active; positive”; (Test System: AMES SALMONELLA TYPHIMURIUM, Strain/Indicator: TA1537, Metabolic Activation: RAT, LIVER, S-9, AROCLOR 1254 (10%), Method: PREINCUBATION) “inactive; negative”.
For `c1ccc([As+](c2ccccc2)(c2ccccc2)c2ccccc2)cc1`, under “Test System: Mouse lymphoma, Strain/Indicator: L5178Y (TK+/TK-), Metabolic Activation: None, Method: Microwell”, the mutagenic call is “inactive; negative”.
As to `COc1nsc2ccc(N)cc12`, for the setting “Test System: AMES SALMONELLA TYPHIMURIUM, Strain/Indicator: TA100, Metabolic Activation: S-9, Method: STANDARD PLATE”, the mutagenic call is “active; positive”.
In the case of `CCN1CCN(C(=O)N[C@@H](C(=O)N[C@@H]2C(=O)N3[C@@H]2SC(C)(C)[C@@H]3C(=O)O)c2ccccc2)C(=O)C1=O`, the mutagenic call was “inactive; negative” (Test System: AMES SALMONELLA TYPHIMURIUM, Strain/Indicator: TA98, Metabolic Activation: MOUSE, IN VIVO, Method: HOST-MEDIATED); “inactive; negative” under setting [1]; “inactive; negative” under setting [5]; “inactive; negative” under setting [6]; “inactive; negative” (Test System: AMES SALMONELLA TYPHIMURIUM, Strain/Indicator: TA98, Metabolic Activation: S-9, Method: PREINCUBATION); “inactive; negative” (Test System: AMES SALMONELLA TYPHIMURIUM, Strain/Indicator: TA100, Metabolic Activation: MOUSE, IN VIVO, Method: HOST-MEDIATED). Further, the mutagenic call under setting [2] is “inactive; negative”; the mutagenic call under setting [7] was “inactive; negative”; the mutagenic call under setting [8] was “inactive; negative”; the mutagenic call (Test System: AMES SALMONELLA TYPHIMURIUM, Strain/Indicator: TA100, Metabolic Activation: S-9, Method: PREINCUBATION) is “inactive; negative”; the mutagenic call (Test System: AMES SALMONELLA TYPHIMURIUM, Strain/Indicator: TA1535, Metabolic Activation: MOUSE, IN VIVO, Method: HOST-MEDIATED) is “inactive; negative”; the mutagenic call under setting [3] was “inactive; negative”. Further, the mutagenic call reads like this: under setting [9], “inactive; negative”; under setting [10], “inactive; negative”; (Test System: AMES SALMONELLA TYPHIMURIUM, Strain/Indicator: TA1535, Metabolic Activation: S-9, Method: PREINCUBATION) “inactive; negative”; (Test System: AMES SALMONELLA TYPHIMURIUM, Strain/Indicator: TA1537, Metabolic Activation: MOUSE, IN VIVO, Method: HOST-MEDIATED) “inactive; negative”; under setting [4], “inactive; negative”; under setting [11], “inactive; negative”. Moreover, the mutagenic call is “inactive; negative” under setting [12]; “inactive; negative” (Test System: AMES SALMONELLA TYPHIMURIUM, Strain/Indicator: TA1537, Metabolic Activation: S-9, Method: PREINCUBATION); “inactive; negative” under setting [13]; “inactive; negative” under setting [14]; “inactive; negative” (Test System: E. COLI, Strain/Indicator: WP2 UVRA, Metabolic Activation: NONE, Method: PREINCUBATION); “inactive; negative” (Test System: E. COLI, Strain/Indicator: WP2 UVRA, Metabolic Activation: NONE, Method: STANDARD PLATE). The mutagenic call reads like this: (Test System: E. COLI, Strain/Indicator: WP2 UVRA, Metabolic Activation: RAT, LIVER, S-9, AROCLOR 1254, Method: STANDARD PLATE) “inactive; negative”; (Test System: E. COLI, Strain/Indicator: WP2 UVRA, Metabolic Activation: S-9, Method: PREINCUBATION) “inactive; negative”.
As to `Cc1cc2c(C)c3ccccc3c(C)c2cc1C`, the mutagenic call runs as follows: under setting [5], “active; positive”; under setting [6], “active; positive”; under setting [7], “inactive; negative”; under setting [8], “active; positive”.
As for `O=c1[nH]c2ccccc2o1`, the mutagenic call reads like this: (Test System: AMES SALMONELLA TYPHIMURIUM, Strain/Indicator: TA98, Metabolic Activation: HAMSTER, LIVER, S-9, AROCLOR 1254, Method: STANDARD PLATE) “inactive; negative”; under setting [5], “inactive; negative”; under setting [6], “inactive; negative”; (Test System: AMES SALMONELLA TYPHIMURIUM, Strain/Indicator: TA100, Metabolic Activation: HAMSTER, LIVER, S-9, AROCLOR 1254, Method: STANDARD PLATE) “inactive; negative”; under setting [7], “inactive; negative”; under setting [8], “inactive; negative”. The mutagenic call by setting is: (Test System: AMES SALMONELLA TYPHIMURIUM, Strain/Indicator: TA1535, Metabolic Activation: HAMSTER, LIVER, S-9, AROCLOR 1254, Method: STANDARD PLATE) “inactive; negative”; under setting [9], “inactive; negative”; under setting [10], “inactive; negative”; (Test System: AMES SALMONELLA TYPHIMURIUM, Strain/Indicator: TA1537, Metabolic Activation: HAMSTER, LIVER, S-9, AROCLOR 1254, Method: STANDARD PLATE) “inactive; negative”; under setting [11], “inactive; negative”; under setting [12], “inactive; negative”. Further, the mutagenic call is, setting by setting: (Test System: AMES SALMONELLA TYPHIMURIUM, Strain/Indicator: TA1538, Metabolic Activation: HAMSTER, LIVER, S-9, AROCLOR 1254, Method: STANDARD PLATE) “inactive; negative”; under setting [13], “inactive; negative”; under setting [14], “inactive; negative”; (Test System: MOUSE LYMPHOMA, Strain/Indicator: L5178Y (TK+/TK-), Metabolic Activation: NONE, Method: SUSPENSION/PLATE) “active; positive. reevaluation of results: equivocal”; (Test System: MOUSE LYMPHOMA, Strain/Indicator: L5178Y (TK+/TK-), Metabolic Activation: RAT, LIVER, S-9, AROCLOR 1254, Method: SUSPENSION/PLATE) “inactive; negative. reevaluation of results: negative”.

Source of the values: PubChem BioAssay AID1259407 (Chemical Carcinogenesis Research Information System (CCRIS), 2018).
